The results in this text go back to patent publication US8993717B2, “Gadd45beta targeting agents” (Imperial Innovations Limited, priority 2009, dated 2015).

pIC50: −log10 of the molar value. Square brackets hold non-standard residues; d marks the D form. Peptide text beside a SMILES is read from it. * marks the point of attachment. Cbz = O=C(OCc1ccccc1)*

In one data set the target is T1, Gadd45β-inhibited MKK7 (Homo sapiens, UniProt O14733).
T1 construct: expressed in transfected cells; host or cells: HEK-293 (FLAG-MKK7); bacteria (GST-hGadd45β)
T1 sequence (O14733 1-419): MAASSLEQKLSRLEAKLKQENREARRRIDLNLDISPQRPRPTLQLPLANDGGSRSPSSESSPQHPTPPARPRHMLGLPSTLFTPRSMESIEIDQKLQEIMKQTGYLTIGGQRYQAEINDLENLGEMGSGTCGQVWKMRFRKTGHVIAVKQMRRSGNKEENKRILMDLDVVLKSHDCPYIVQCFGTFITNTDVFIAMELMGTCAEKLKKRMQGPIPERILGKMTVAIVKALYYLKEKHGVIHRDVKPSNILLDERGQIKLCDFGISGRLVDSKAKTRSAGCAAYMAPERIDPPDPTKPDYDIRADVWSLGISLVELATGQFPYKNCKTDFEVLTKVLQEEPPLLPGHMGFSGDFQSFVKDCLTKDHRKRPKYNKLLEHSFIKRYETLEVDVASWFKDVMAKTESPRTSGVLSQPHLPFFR
Nature of the data set: MKK7 kinase assay in the presence of recombinant hGadd45β. The class given is biochemical. To be noted: 1 nM or 5 nM peptide, 5 μM GST-hGadd45β. As for the experimental part:
In FIG. 6, transient transfection of pcDNA-FLAG-MKK7 in HEK-293 cells was performed using the method of Ca3(PO4)2 precipitation, essentially as described in Papa, S et al., (2004) Nat. Cell Biol. 6, 146-153 and references therein. 36 hrs after transfection, the cells were treated with 100 ng/ml phorbol 12-myristate 13-acetate (PMA) and 1 μM ionomycin for 30 min at 37° C. Cell extracts were prepared as described in example 4 and used for immunoprecipitation with anti-FLAG antibodies (binding to FLAG-MKK7) as described in Papa, S et al., (2004) Nat. Cell Biol. 6, 146-153 and references therein. Briefly, 50 μg of cell lysate from PMA-ionomycin (P/D-treated or untreated, HEK-293 cells transiently expressing FLAG-MKK7 was incubated with 10 μl of anti-FLAG M2 Affinity Gel (SIGMA) for 4 hrs at 4° C. during rotation. The immunoprecipitates were then washed 3 times in lysis buffer and twice more in kinase buffer (10 mM HEPES, 5 mM MgCl2, 1 mM MnCl2,12.5 mM β-glycerophosphate, 2 mM DTT, 4 mM NaF and 0.1 mM Na3VO4). MKK7 catalytic activity was finally measured in kinase assays by incubating FLAG-MKK7 immunoprecipitates at 30° C. for 20 min with 20 μl of kinase buffer containing 2 μM of recombinant GST-JNK1 and 5 μCi of [γ-^32P]ATP) (kinase reaction), as described in Papa, S et a., (2004) Nat. Cell Biol. 6, 146-153 and references therein.
In some reactions, to test the ability of D-tetrapeptide antagonists to disrupt the Gadd45β-MKK7 interaction and so release the catalytic activity of MKK7 from Gadd45β-afforded inhibition, FLAG-MKK7 immunoprecipitates were 1) first pre-incubated for 10 min at 30° C. with either 1 nM or 5 nM of DTP1, DTP2 or negative control (NC) D-tetrapeptides, NC1, NC2, NC3 and NC4, and 2) then incubated for another 10 min at 30° C. with or without 5 μM of a GST-fusion protein of recombinant human (h)Gadd45β (GST-hGadd45β; purified from bacterial lysates as described in Papa, S., (2007) J. Biol. Chem. 282, 19029-19041), before using them for the kinase reaction described above, as indicated in FIG. 6.
In all cases, kinase reactions were terminated by the addition of Laemmli sample buffer. […] For a further discussion of MKK7 kinase assay conditions, the reader is directed to Papa, S et al., (2007) J. Biol. Chem. 282, 19029-19041 and Papa, S et al., (2004) Nat. Cell Biol. 6, 146-153 and the references therein.

Data set [1] has as its target T2, Gadd45β/MKK7 interaction (Homo sapiens, UniProt O14733).
T2 construct: The GST-fused full-length kinase was coated for 16 h at 4° C., at a concentration of 42 nM; made in house
T2 sequence (O14733 1-419): T1 sequence (O14733 1-419)
Nature of the data set: ELISA competition assay of biotin-hGadd45β binding to coated GST-MKK7. The conditions noted are these: Table III, modified peptides. The procedure, abridged:
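GST-MKK7 (42 nM) coated in Tris pH 7.5 buffer, 16 h, 4 °C; biotin-hGadd45β (21 nM) added with competitor peptides (0.01–100 nM), 1 h, 37 °C. Streptavidin-HRP/o-phenylenediamine read at 490 nm; binding expressed as % of signal without competitor.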
Background: ELISA stands for enzyme-linked immunosorbent assay.

Data set [2] has as its target T2, Gadd45β/MKK7 interaction. Nature of the data set: ELISA competition assay after 48-hr pre-incubation with human serum at 37° C. Format: binding. To be noted: for stability after pre-incubation with human serum: result in words. As for the experimental part: In FIG. 4, Gadd45β/MKK7 binding, competition ELISA assays were carried out to determine the stability of Z-conjugated D-tetrapeptides in human serum. […] ELISA were performed as described in FIG. 3 C. Briefly, 100 μl of 42 nM of recombinant GST-MKK7 in ELISA buffer (25 mM Tris pH 7.5, 150 mM NaCl, 1 mM DTT, 1 mM EDTA) were coated onto wells of 96-well plates by overnight incubation at 4° C. After blocking with 2% of NFDM for 1 hr at 37° C., plates were washed with TPBS, and then 21 nM of recombinant, biotinylated human (h)Gadd45β were added to the wells together with increasing concentrations of tetrapeptides which had either been subjected or had not been subjected to pre-incubation with human serum, as indicated. For a further discussion of the conditions used for the competition ELISA assay, the reader is directed to Tornatore et al 2008 JMB, 378: 97-111 and the references therein.

Data set [3] relates to U266, KMS-11, NCI-H929, BJAB and U937 tumour cell lines. Nature of the data set: [3H]thymidine incorporation assay in tumour cell lines at 10 μM. Format: cell-based, human. The conditions noted are these: up to 144 hrs, result in words. As for the experimental part: All experiments were performed in triplicate.
On the technique in general: Uptake of a labelled nucleoside into DNA is a usual measure of proliferation.

For `CC(=O)N[C@@H](Cc1ccc(O)cc1)C(=O)N[C@@H](CC(=O)O)C(=O)N[C@@H](CCCCN)C(=O)N[C@@H](Cc1c[nH]c2ccccc12)C(N)=O` [NC4, Acetyl-(L-Tyr)-(L-Asp)-(L-Lys)-(L-Trp)-NH2] (Ac-YDKW-NH2), the “restoration of MKK7 catalytic activity” value at Gadd45β-inhibited MKK7 is on record as “did not”.

For the compound `CC(=O)N[C@H](Cc1ccc(O)cc1)C(=O)N[C@H](CC(=O)O)C(=O)N[C@H](Cc1c[nH]cn1)C(=O)N[C@H](CCC(N)=O)C(N)=O` [NC1, Acetyl-(D-Tyr)-(D-Asp)-(D-His)-(D-Gln)-NH2] (Ac-[dY][dD][dH][dQ]-NH2), the “restoration of MKK7 catalytic activity” value at Gadd45β-inhibited MKK7 is “did not”.

A word on the pIC50: it is the IC50 on a negative log10 scale, so that one unit is a factor of ten. A low value points to a large IC50. In the case of `N=C(N)NCCC[C@H](NC(=O)[C@H](CCC(=O)O)NC(=O)[C@H](Cc1ccc(O)cc1)NC(=O)OCc1ccccc1)C(=O)N[C@@H](Cc1ccccc1)C(N)=O` [Z-YERF-NH2] (Cbz-YERF-NH2), on Gadd45β/MKK7 interaction [1], the “% Inhibition of Gadd45β-MKK7 binding” value is 78%. Also, at Gadd45β/MKK7 interaction [2], the negative logarithm of the IC50 (pIC50) was below 5.00 and the “stability after pre-incubation with human serum” value is reported as “significant loss of activity”. Moreover, the “tumoricidal/cytotoxic activity in tumour cell lines” value in data set [3] is given as “low activity”.

For `CC(=O)N[C@@H](Cc1ccc(O)cc1)C(=O)N[C@@H](CC(=O)O)C(=O)N[C@@H](Cc1c[nH]cn1)C(=O)N[C@@H](C)C(N)=O` [NC2, Acetyl-(L-Tyr)-(L-Asp)-(L-His)-(L-Ala)-NH2] (Ac-YDHA-NH2), the “restoration of MKK7 catalytic activity” value on Gadd45β-inhibited MKK7 was “did not”.

Turning to `NC(=O)[C@H](Cc1ccccc1)NC(=O)[C@H](Cc1c[nH]cn1)NC(=O)[C@H](CC(=O)O)NC(=O)[C@H](Cc1ccc(O)cc1)NC(=O)OCc1ccccc1` [Z-YDHF-NH2] (Cbz-YDHF-NH2), at Gadd45β/MKK7 interaction [2], the pIC50 is below 5.00 and the “stability after pre-incubation with human serum” value is “significant loss of activity”. In addition, the “tumoricidal/cytotoxic activity in tumour cell lines” value in data set [3] is on record as “not”.

As to `CC(=O)N[C@@H](Cc1ccc(O)cc1)C(=O)N[C@@H](CCC(=O)O)C(=O)N[C@@H](CCCCN)C(=O)N[C@@H](Cc1c[nH]c2ccccc12)C(N)=O` [NC3, Acetyl-(L-Tyr)-(L-Glu)-(L-Lys)-(L-Trp)-NH2] (Ac-YEKW-NH2), the “restoration of MKK7 catalytic activity” value on Gadd45β-inhibited MKK7 was “did not”.
